Measured values as given in patent US8148097B2, “Screening method for identification of compounds with calcium-independent phospholipase A2β (iPLA2β) modulating activity” (Washington University, priority 2005, dated 2012).

Molecular target: T1, iPLA2β (Cricetulus griseus, UniProt A0A3L7I2I8)
T1 construct: (His)6; made in house; host or cells: Sf9 insect cells (baculovirus)
T1 sequence (A0A3L7I2I8 1-752 isoform A0A3L7I2I8-2): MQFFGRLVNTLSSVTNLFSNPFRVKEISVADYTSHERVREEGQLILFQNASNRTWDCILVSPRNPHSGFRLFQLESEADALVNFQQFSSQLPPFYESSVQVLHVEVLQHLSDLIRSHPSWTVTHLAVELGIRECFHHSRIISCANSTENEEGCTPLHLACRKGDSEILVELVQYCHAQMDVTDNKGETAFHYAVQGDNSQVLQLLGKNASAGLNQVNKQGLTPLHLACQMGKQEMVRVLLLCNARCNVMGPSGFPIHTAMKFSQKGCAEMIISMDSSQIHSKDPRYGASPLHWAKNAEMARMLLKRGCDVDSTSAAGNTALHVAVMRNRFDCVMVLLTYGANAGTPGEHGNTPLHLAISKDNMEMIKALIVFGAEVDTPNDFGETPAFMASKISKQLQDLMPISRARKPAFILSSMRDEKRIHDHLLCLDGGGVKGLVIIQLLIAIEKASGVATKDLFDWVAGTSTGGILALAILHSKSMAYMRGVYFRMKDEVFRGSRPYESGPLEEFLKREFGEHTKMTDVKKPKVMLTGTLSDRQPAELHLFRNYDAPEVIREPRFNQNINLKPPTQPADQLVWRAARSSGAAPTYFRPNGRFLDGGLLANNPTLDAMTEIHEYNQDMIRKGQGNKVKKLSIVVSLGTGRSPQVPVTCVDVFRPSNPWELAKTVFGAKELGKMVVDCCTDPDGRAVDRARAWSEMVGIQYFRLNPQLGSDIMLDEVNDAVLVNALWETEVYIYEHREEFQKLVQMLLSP
Test: Real-time fluorescence BODIPY-PC assay of iPLA2β phospholipase A2 activity
Assay type: biochemical
Method: FIGS. 11A-11D—Purified iPLA2β+/−Ca^2+/CaM was incubated with POPC/BODIPY-PC (95:5 mol %) host vesicles for 2 min at 37° C. with the indicated concentrations of guest oleoyl-CoA. Relative fluorescence was recorded utilizing 495 nm excitation and 515 nm emission wavelengths as described in Experimental Procedures. FIGS. 11E-11H—ESI-MS analysis of phosphatidylcholine molecular species from the reactions described in panels A and D. Spectra were acquired in the positive ion mode with the indicated internal standards as described in Experimental Procedures. FIG. 11I—Purified iPLA2β in the presence or absence of Ca^2+/CaM was incubated with 1-palmitoyl-2-[1-^14C]-oleoyl-sn-glycero-3-phosphocholine (100 μM) host vesicles with or without guest oleoyl-CoA (10 μM) for 3 min at 37° C. Radiolabeled fatty acid was extracted into butanol, resolved by TLC, and quantified by scintillation spectrometry as described in Experimental Procedures.
Phospholipase A2 and Acyl-CoA Hydrolase Enzymatic Assays—Purified recombinant iPLA2β(His)6 (peptide disclosed as SEQ ID NO: 4) (0.1-1 μg) was incubated with radiolabeled phospholipid or acyl-CoA in 25 mM Tris-HCl, pH 7.2 containing 1 mM EGTA (200 μl final volume) for 1-2 mm at 37° C. […] Incorporation of acyl-CoA into the POPC/DOPS vesicles employed was determined as described previously (64). Reactions were terminated by extraction of the released radiolabeled fatty acids into 100 μl butanol, separation of fatty acids from unreacted substrate by thin layer chromatography, and quantitation by scintillation spectroscopy as previous described (65). For tests examining the effects of acyl-CoAs on calmodulin-mediated inhibition of iPLA2β, phospholipase A2 activity was continuously measured utilizing a SPECTRAmax GEMINI XS Dual-Scanning Microplate Spectrofluorometer (Molecular Devices). […] Fluorescence readings were acquired at 20 sec intervals for 5 mm at 37° C. utilizing excitation/emission wavelengths of 495/515 nm, respectively. […]

- reversal of calmodulin-mediated inhibition of iPLA2β phospholipase A2 activity (5 μM oleoyl-CoA): significant reversal
- activity of CaM-inhibited iPLA2β, % of initial activity (1 mol % oleoyl-CoA, FIG. 11B): ≈ 40%
SMILES: CCCCCCCC/C=C\CCCCCCCC(=O)SCCNC(=O)CCNC(=O)[C@H](O)C(C)(C)COP(=O)(O)OP(=O)(O)OC[C@H]1O[C@@H](n2cnc3c(N)ncnc32)[C@H](O)[C@@H]1OP(=O)(O)O [oleoyl-CoA]
- effect on CaM mediated inhibition of iPLA2β (2.5-5 mol % oleoyl-CoA, FIG. 11C-D): completely eliminated CaM mediated inhibition
